One substance from patent publication US5700481A, “Transdermal drug delivery process” (Takeda Chemical Industries, Ltd., priority 1995, dated 1997) can be followed below.

Series [1] can be described thus: Transdermal iontophoretic delivery of salmon calcitonin; serum concentration by radioimmunoassay and bioavailability (AUC relative to intravenous) (Example 1). Conditions: for bioavailability (BA): 20 μg per membrane (BSA pretreated), 40 kHz, duty 30%, 15 min x 3 at 5 min interval, vs intravenous AUC. The format is in vivo, SD rat (male, 7-week aged). The protocol:
(§1) An abdominal skin of a SD rat (male, 7-week aged) was clipped with a hair clipper and treated with a shaver under pentobarbital-anesthetization, and was slightly rubbed with an absorbent cotton (cotton wool) containing a 70% aqueous solution of ethanol for defatting and disinfection. […] Meanwhile, in the Applicator A shown in FIG. 1, the dried drug was dissolved immediately before use by supplying or feeding water to the membrane from the reservoir. In the applicator B illustrated in FIG. 2, the applicator was first attached or adhered to the skin and then the dried drug was dissolved by supplying 120 μl of a distilled water from an injection tip. Further, a silver chloride electrode (2.5 cm^2) as a reference electrode was adhered and fixed in the opposite part to the adhered part of the applicator via an electrically conductible gel comprising 10% PVA gel containing 0.9% of NaCl in a thickness of 2 mm.
Then, a continuous voltage application for 15 minutes was repeated for 3 times at a time interval of 5 minutes in the following manner. That is, the voltage application was effected by a direct-current pulse application (depolarizing constant voltage square pulse application) with a frequency of 40 kHz and a duty (pulse-duty factor) of 30% using the applicator as an anode and the reference electrode as a cathode, with changing the applied voltage as follows. In the respective voltage application, observed electric current in the initial stage of the voltage application was respectively determined for each rat. The current density as a mean value for the subjects are as follows.
(1) Applicator A: voltage 6 V current density about 0.04 mA/cm^2
(2) Applicator B: voltage 12 V current density about 0.24 mA/cm^2
(3) Applicator C: voltage 12 V current density about 0.24 mA/cm^2
(§2) Blood was took from jugular veins (cervical vein) of the rat and centrifuged at a rate of 12,000 rpm for 10 minutes, and the concentration of the salmon calcitonin in the obtained serum sample was determined by a radioimmunoassay method. The results are illustrated in FIG. 3.

The nature of series [2]: Transdermal iontophoretic delivery of salmon calcitonin with different amounts in drug-retaining membrane (Example 2). In kind it is in vivo, SD rat (male, 7-week aged). Conditions: 12 V. The protocol: as §1, with “Further, a silver chloride electrode (2.5 cm^2) as a reference electrode was adhered and fixed in the opposite part to the adhered part of the applicator via an electrically conductible gel comprising 10% PVA gel containing 0.9% of NaCl in a thickness of 2 mm.” left out
Blood was took from jugular veins (cervical vein) of the rat and centrifuged at a rate of 12,000 rpm for 10 minutes, and the concentration of the salmon calcitonin in the obtained serum sample was determined by a radioimmunoassay method. […]
(§3) Under pentobarbital-anesthetization, an abdominal skin of a SD rat (male, 7-week aged) was clipped with a hair clipper and treated with a shaver, and was slightly rubbed with an absorbent cotton (cotton wool) containing a 70% aqueous solution of ethanol for defatting and disinfection. […] The current density determined in the initial stage of the voltage application was about 0.24 mA/cm^2 as a mean value of the each rat. […]

Series [3] in a line: Correlation between initial electric current value and AUC value (Example 3). The format is in vivo, SD rat (male, 7-week aged). Conditions: in terms of dosage of 20 μg; initial current 0.2 mA/2.5 cm^2 to 0.7 mA/2.5 cm^2 (0.08 to 0.28 mA/cm^2); 48 tests; FIG. 5. The protocol:
as §1, with “Further, a silver chloride electrode (2.5 cm^2) as a reference electrode was adhered and fixed in the opposite part to the adhered part of the applicator via an electrically conductible gel comprising 10% PVA gel containing 0.9% of NaCl in a thickness of 2 mm.” left out
Then, a continuous voltage application for 15 minutes was repeated for 3 times at a time interval of 5 minutes in the following manner. […] In the respective voltage application, observed electric current in the initial stage of the voltage application was respectively determined for each rat. […]
as §3

The nature of series [4]: Transdermal iontophoretic delivery of salmon calcitonin with stepwise decreased voltage (Example 4). In kind it is in vivo, male SD rat (7-week aged). The note with it: for bioavailability (BA): Applicator A, 4 μg per membrane (BAC pretreated), 30 kHz, duty 50%. The procedure:
as §2
An abdominal skin of a male SD rat (7-week aged) was clipped with a hair clipper and treated with a shaver under pentobarbital-anesthetization, and was slightly rubbed with an absorbent cotton holding a 70% aqueous solution of ethanol for defatting and disinfection. […] Immediately before the use of the applicator, the dried drug was dissolved by supplying water from the reservoir. Further, a reference electrode was attached and fixed to the skin in the same manner as Example 1.
Then, in the common condition of a frequency of 30 kHz and a duty of 50%, the calcitonin was transdermally delivered according to the following processes:
(1) a process of applying a voltage of 12 V for 5 minutes and, without interruption, applying a voltage of 7.5 V for 40 minutes,
(2) a process of applying a voltage of 12 V for 15 minutes and, without interruption, applying a voltage of 7.5 V for 30 minutes, and
(3) a process of applying a voltage of 12 V for 15 minutes.
The salmon calcitonin concentrations in the serum were evaluated in the same manner as Example 1, and the results are illustrated in FIG. 6.

As to salmon calcitonin, the “bioavailability (BA)” value in series [1] (Applicator A, applied voltage 6 V) amounted to 4.6%; in series [1] (Applicator A, applied voltage 12 V), 16.6%; in series [1] (Applicator B, applied voltage 12 V) it was 16.6%; in series [2] (Applicator B, drug-retaining membrane (1), 10 μg (BAC pretreated), 40 kHz, duty 30%, 15 min x 3 at 5 min interval), 23.3%; in series [4] (process (1): 12 V for 5 min then 7.5 V for 40 min) it was 13.6%; in series [4] (process (2): 12 V for 15 min then 7.5 V for 30 min) it was 14.2%. Further, the “bioavailability (BA)” value in series [4] (process (3): 12 V for 15 min) was 3.6%. The “salmon calcitonin concentration in the serum” value in series [1] (applied voltage 12 V (iontophoresis (2) and (3)) in comparison with 6 V (1), FIG. 3) is “can be increased in comparison with the iontophoresis (1)”. Also, the “serum salmon calcitonin concentration” value is “could be controlled according to the possessing amount” in series [2] (according to possessing amount (10 or 20 μg), FIG. 4); “high” in series [4] (processes (1) and (2) compared with process (3), FIG. 6). In addition, the AUC value entry in series [3] is “large AUC values”.
